The values that follow come from patent US12005126B2, “Compositions for oral administration of pentosan polysulfate in form of nanoparticles with improved intestinal absorption” (NEXTRARESEARCH S.R.L., priority 2018, dated 2024).

A short description of the data set: In-vivo pharmacokinetics study in rats after oral administration. The conditions noted are these: 1 mL, PPS conc. 4.64 mg/mL. As to the method:
The bioavailability of PPS from the formulations of this invention can be evaluated in rats upon oral administration by gavage of the powder dispersion in comparison to the solution of non-formulated PPS
Plasma concentration versus time curve were evaluated in an in-vivo pharmacokinetics study carried out in rats after oral administration of 1 mL of a PPS aqueous solution having a concentration 4.64 mg/mL (Form I) or 1 mL of the PPS/chitosan nanosuspension (PPS conc. 4.64 mg/mL). In the nanosuspension the ratio between the volume of solution of PPS (6.5 mg/mL) and of solution of chitosan (6.5 mg/mL) used for the production of the nanoparticles was 5:2 (v/v).

As for “Pentosan Polysulfate sodium [PPS solution]”, the “Area under the curve” value is 1306 µg·min/mL and the tmax was determined as 1 h.
